Experiments:
[1] = biological target: T1, 5-HT2A (Homo sapiens, UniProt P28223); test: Serotonin 5-HT2A in vitro radioligand binding competition assay; set-up: purchased Epics Therapeutics S.A. (Belgium) FAST-0505B; host or cells: membrane extracts; conditions: radiotracer [3H]-DOI, membrane extracts
Protocol: Serotonin 5-HT2A In Vitro Radioligand Binding Competition Assay. The 5-HT2A radioligand binding competition assay was performed at Epics Therapeutics S.A. (Belgium, FAST-0505B) using conventional methods. Briefly, competition binding is performed in duplicate in the wells of a 96 well plate (Master Block, Greiner, 786201) containing binding buffer (optimized for each receptor), membrane extracts (amount of protein/well optimized for each receptor), radiotracer [^3H]-DOI (final concentration optimized for each receptor) and test compound. Nonspecific binding is determined by co-incubation with 200-fold excess of cold competitor. The samples are incubated in a final volume of 0.1 ml at a temperature and for a duration optimized for each receptor and then filtered over filter plates. Filters are washed six times with 0.5 ml of ice-cold washing buffer (optimized for each receptor) and 50 μl of Microscint 20 (Packard) are added in each well. The plates are incubated 15 min on an orbital shaker and then counted with a TopCount™ for 1 min/well.

[2] = biological target: T1, 5-HT2A; test: Serotonin 5-HT2A in vitro cellular IPOne agonism assay; assay type: cell-based; set-up: host or cells: CHO-K1; conditions: CHO-K1 cells, IPOne HTRF, 60 min
Protocol: Serotonin 5-HT2A In Vitro Cellular IPOne Agonism Assay. The 5-HT2A IPOne HTRF assay was performed at Epics Therapeutics S.A. (Belgium, FAST-0505I) using conventional methods. Briefly, CHO-K1 cells expressing human recombinant 5-HT2A receptor grown to mid-log phase in culture media without antibiotics were detached with PBS-EDTA, centrifuged, and resuspended in medium without antibiotics buffer. 20,000 cells are distributed in a 96 well plate and incubated overnight at 37° C. with 5% CO2.
For agonist testing, the medium is removed and 20 μl of assay buffer plus 20 μl of test compound or reference agonist are added in each well. The plate is incubated for 60 min. at 37° C. with 5% CO2.
After addition of the lysis buffer containing IP1-d2 and anti-IP1 cryptate detection reagents, plates are incubated 1-hour at room temperature, and fluorescence ratios are measured according to the manufacturer specification, with the HTRF kit.

[3] = tested on: rat cortical neurons; test: Neurite Outgrowth Assay (Procedure B); assay type: cell-based; set-up: key: A: Statistically significant mean increase as a percent of DMSO control at 10 μM or less; B: No statistically significant mean increase as a percent of DMSO control at 10 μM or less; conditions: primary rat neuronal cultures, 72h, vs DMSO control, 10 μM or less
Protocol: Neurite Outgrowth Assay (Procedure B). Pregnant Wistar rats (Janvier; France) were used for the study. They were delivered 6 days before their use. Upon arrival at Neurofit animal facility, they were housed one per cage and maintained in a room with controlled temperature (21-22° C.) and a reversed light-dark cycle (12h/12h; lights on: 17:30-05:30; lights off: 05:30-17:30) with food and water available ad libitum.
Female Wistar rats of 17 days gestation were killed by cervical dislocation and the fetuses were removed from the uterus. Their brains were placed in ice-cold medium of Leibovitz (L15, Gibco, Fisher bioblock, France). Cortices were dissected and meninges were carefully removed. The cortical neurons were dissociated by trypsinization for 30 min at 37° C. (trypsin-EDTA, Gibco) in presence of 0.1 mg/ml DNAse I (Roche, France). The reaction was stopped by addition of Dulbecco's Modified Eagle Medium (DMEM; Gibco) with 10% of fetal bovine serum (FBS; Gibco). The suspension was triturated with a 10-ml pipette and using a needle syringe 21G and centrifuged at 350×g for 10 min at room temperature. The pellet of dissociated cells was resuspended in a medium consisting of Neurobasal (Gibco) supplemented with 2% B27 supplement (Gibco), 0.5 mM L-Glutamine (Gibco), an antibiotic-antimicotic mixture. Viable cells were counted in a Neubauer cytometer using the trypan blue exclusion test (Sigma). Cells were seeded at a density of 10000 cells per well in 96-well plate (Costar) precoated with poly-L-lysine. Test compound at different concentrations were added to the cultures. Donepezil (positive control) was tested at 250 nM.
After 72h (3 days) of plating, cultures were fixed with paraformaldehyde in PBS (4%, Sigma) for 30 min at 4° C. Then, cells were successively permeabilized with 0.1% Triton X100 for 30 min, saturated with PBS containing 3% of BSA and were incubated 1 h with anti-beta III tubulin antibody (Sigma) at 1/10 000 in PBS containing 0.5% of BSA. Cells were washed three times with PBS containing 0.5% of BSA, and they were incubated 1 h with goat anti-mouse antibody coupled with AF488 (Invitrogen A11001) diluted at 1/1000 in PBS containing 0.5% of BSA. Finally, nuclei were staining with DAPI 1 mg/ml at 1/1000 in PBS containing 0.5% of BSA. After rinsing with PBS, the plate was filmed and neurite networks were examined and analyzed using High-Content Screening (Celllnsight, Thermo Scientific). The average number of neurites per neuron and the average total length of neurites per neuron were the main parameters analyzed. Analysis of data was performed using analysis of variance (ANOVA). The Fisher's Protected Least Significant Difference test was used for multiple comparisons. A p value≤0.05 was considered significant. The software used is StatView 5.0 from SAS Institut.

T1 sequence (P28223 whole entry): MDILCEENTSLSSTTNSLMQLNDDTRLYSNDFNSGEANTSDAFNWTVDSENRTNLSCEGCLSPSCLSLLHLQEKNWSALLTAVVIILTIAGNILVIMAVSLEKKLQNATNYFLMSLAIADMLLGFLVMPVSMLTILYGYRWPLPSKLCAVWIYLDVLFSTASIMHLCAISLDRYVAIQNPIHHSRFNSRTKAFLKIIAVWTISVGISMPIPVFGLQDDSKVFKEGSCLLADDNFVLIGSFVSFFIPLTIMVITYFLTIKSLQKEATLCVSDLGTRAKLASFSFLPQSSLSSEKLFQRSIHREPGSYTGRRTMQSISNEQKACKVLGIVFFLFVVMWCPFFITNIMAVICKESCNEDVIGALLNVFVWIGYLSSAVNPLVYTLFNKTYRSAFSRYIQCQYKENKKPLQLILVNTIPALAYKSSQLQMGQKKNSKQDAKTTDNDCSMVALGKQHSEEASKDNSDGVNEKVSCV

SMILES | IC50 [1] [nM] | EC50 [2] [nM] | Increase in Neurite Length [3] | Increase in Neurite Number [3]
COc1ccc2c3c([nH]c2n1)CCNCC3 [Example 2, 2-methoxy-5,6,7,8,9,10-hexahydropyrido[3′,2′:4,5]pyrrolo[2,3-d]azepine] | 101 to 1000 | 10 to 100 | A | A
COc1ccc2c3c(n(C)c2n1)CCN(C)CC3 [Example 3, 2-methoxy-7,10-dimethyl-5,6,7,8,9,10-hexahydropyrido[3′,2′:4,5]pyrrolo[2,3-d]azepine] | 1000 to 10000 | 101 to 1000 | B | B
COc1ccc2c3c([nH]c2n1)CCN(C1COC1)CC3 [Example 4, 2-methoxy-7-(oxetan-3-yl)-5,6,7,8,9,10 hexahydropyrido[3′,2′:4,5]pyrrolo[2,3-d]azepine] | > 10000 | > 10000 | B | B
COc1ccc2c3c(n(C)c2n1)CCNCC3 [Example 5, 2-methoxy-10-methyl-5,6,7,8,9,10-hexahydropyrido[3′,2′:4,5]pyrrolo[2,3-d]azepine] | 101 to 1000 | 10 to 100 | B | B
COc1ccc2c3c(n(C)c2n1)CCN(C1COC1)CC3 [Example 6, 2-methoxy-10-methyl-7-(oxetan-3-yl)-5,6,7,8,9,10-hexahydropyrido[3′,2′:4,5]pyrrolo[2,3-d]azepine] | > 10000 | 1000 to 10000 |  | 
Cc1ccc2c3c([nH]c2n1)CCN(C)CC3 [Example 7, 2,7-dimethyl-5,6,7,8,9,10-hexahydropyrido[3′,2′:4,5]pyrrolo[2,3-d]azepine] | 1000 to 10000 | 1000 to 10000 | B | B
Cc1ccc2c3c([nH]c2n1)CCNCC3 [Example 8, 2-methyl-5,6,7,8,9,10-hexahydropyrido[3′,2′:4,5]pyrrolo[2,3-d]azepine] | 1000 to 10000 | 101 to 1000 | B | B
Cc1ccc2c3c(n(C)c2n1)CCNCC3 [Example 10, 2,10-dimethyl-5,6,7,8,9,10-hexahydropyrido[3′,2′:4,5]pyrrolo[2,3-d]azepine] | 1000 to 10000 | 10 to 100 |  | 
Clc1cnc2[nH]c3c(c2c1)CCNCC3 [Example 13, 3-chloro-5,6,7,8,9,10-hexahydropyrido[3′,2′:4,5]pyrrolo[2,3-d] azepine] | 101 to 1000 | 10 to 100 |  | 
COc1cc2c3c([nH]c2cn1)CCN(C)CC3 [Example 14, 3-methoxy-7-methyl-5,6,7,8,9,10-hexahydropyrido[4′,3′:4,5]pyrrolo[2,3-d]azepine] | > 10000 | > 10000 |  | 
COc1ccc2[nH]c3c(c2n1)CCN(C)CC3 [Example 15, 2-methoxy-8-methyl-5,6,7,8,9,10-hexahydropyrido[2′,3′:4,5]pyrrolo[2,3-d]azepine] | 101 to 1000 | 101 to 1000 |  | 
Brc1ccc2c3c([nH]c2n1)CCNCC3 [Example 16, 2-bromo-5,6,7,8,9,10-hexahydropyrido[3′,2′:4,5]pyrrolo[2,3-d]azepine] | 101 to 1000 | 10 to 100 |  | 
c1cnc2[nH]c3c(c2c1)CCNCC3 [Example 17, 5,6,7,8,9,10-hexahydropyrido[3′,2′:4,5] pyrrolo[2,3-d] azepine] | 101 to 1000 | 101 to 1000 |  | 
Cn1c2c(c3cccnc31)CCNCC2 [Example 18, 10-methyl-5,6,7,8,9,10-hexahydropyrido[3′,2′:4,5]pyrrolo[2,3-d]azepine] | 101 to 1000 | 101 to 1000 |  | 
CN1CCc2[nH]c3nc(Br)ccc3c2CC1 [Example 19, 2-bromo-7-methyl-5,6,7,8,9,10-hexahydropyrido[3′,2′:4,5]pyrrolo[2,3-d]azepine] | 1000 to 10000 | 101 to 1000 |  | 
CN1CCc2[nH]c3ncccc3c2CC1 [Example 20, 7-methyl-5,6,7,8,9,10-hexahydropyrido[3′,2′:4,5]pyrrolo[2,3-d]azepine] | 101 to 1000 | 101 to 1000 |  | 
CN1CCc2c(n(C)c3ncccc23)CC1 [Example 21, 7,10-dimethyl-5,6,7,8,9,10-hexahydropyrido[3′,2′:4,5]pyrrolo[2,3-d]azepine] | 101 to 1000 | 101 to 1000 |  | 
c1cnc2[nH]c3c(c2c1)CCN(C1COC1)CC3 [Example 22, 7-(oxetan-3-yl)-5,6,7,8,9,10-hexahydropyrido[3′,2′:4,5]pyrrolo[2,3-d]azepine] | > 10000 | > 10000 |  | 
Cn1c2c(c3cccnc31)CCN(C1COC1)CC2 [Example 23, 10-methyl-7-(oxetan-3-yl)-5,6,7,8,9,10-hexahydropyrido[3′,2′:4,5]pyrrolo[2,3-d]azepine] | > 10000 | 1000 to 10000 |  | 
Brc1ccc2c3c([nH]c2n1)CCN(C1COC1)CC3 [Example 24, 2-bromo-7-(oxetan-3-yl)-5,6,7,8,9,10-hexahydropyrido[3′,2′:4,5]pyrrolo[2,3-d]azepine] | 1000 to 10000 | 1000 to 10000 |  | 
Cn1c2c(c3ccc(Br)nc31)CCNCC2 [Example 25, 2-bromo-10-methyl-5,6,7,8,9,10-hexahydropyrido[3′,2′:4,5]pyrrolo[2,3-d]azepine] | 101 to 1000 | 10 to 100 |  | 
CN1CCc2[nH]c3ncc(Cl)cc3c2CC1 [Example 26, 3-chloro-7-methyl-5,6,7,8,9,10-hexahydropyrido[3′,2′:4,5]pyrrolo[2,3-d]azepine] | 101 to 1000 | 101 to 1000 |  | 
Clc1cnc2[nH]c3c(c2c1)CCN(C1COC1)CC3 [Example 27, 3-chloro-7-(oxetan-3-yl)-5,6,7,8,9,10-hexahydropyrido[3′,2′:4,5]pyrrolo[2,3-d]azepine] | 1000 to 10000 | 1000 to 10000 |  | 
Cn1c2c(c3cc(Cl)cnc31)CCNCC2 [Example 28, 3-chloro-10-methyl-5,6,7,8,9,10-hexahydropyrido[3′,2′:4,5]pyrrolo[2,3-d]azepine] | 101 to 1000 | 101 to 1000 |  | 
Cn1c2c(c3cc(Cl)cnc31)CCN(C1COC1)CC2 [Example 29, 3-chloro-10-methyl-7-(oxetan-3-yl)-5,6,7,8,9,10-hexahydropyrido[3′,2′:4,5]pyrrolo[2,3-d]azepine] | > 10000 | 1000 to 10000 |  | 
CN1CCc2c(n(C)c3ncc(Cl)cc23)CC1 [Example 30, 3-chloro-7,10-dimethyl-5,6,7,8,9,10-hexahydropyrido[3′,2′:4,5]pyrrolo[2,3-d]azepine] | 101 to 1000 | 101 to 1000 |  | 

From patent publication US20230227453A1 (priority 2020, published 2023)
